A short description of the data set: Pharmacokinetics in humans after a 10 mg tablet under fasting conditions. In kind it is in vivo. Conditions: human patients, single 10 mg oral dose, mean±SD. The procedure: Tablets containing a 10 mg dose of ABT-869 ethanolate, as prepared above, were administered to 11 patients in the morning with 240 mL of water under fasting conditions (defined as no food or drink consumption except water and concomitant medications for 2 hours prior to dosing). Following dosing, 4-mL blood samples were collected for pharmacokinetic analyses at the following times: 0 (pre-dose), 1, 3, 4, 6, 8, 24 and 48 hours. These samples were analyzed for ABT-869 plasma concentrations using Liquid Chromatography/Tandem Mass Spectrometry (LCMS/MS). The lower limit of quantification (LLOQ) for the assay was 1.1 ng/mL.
Pharmacokinetic parameters including the maximum observed plasma concentration (Cmax), time to Cmax (Tmax), the area under the plasma concentration-time curve (AUC) from 0 to time of the last measurable concentration (AUC0-48) and AUC from 0 to infinite time (AUCoo) were determined by non-compartmental methods using WinNonlin Professional version 5.2 software.

In general, Tmax refers to the time at which the peak concentration occurs. For the compound `Cc1ccc(F)c(NC(=O)Nc2ccc(-c3cccc4[nH]nc(N)c34)cc2)c1` [ABT 869, N-[4-(3-amino-1H-indazol-4-yl)phenyl]-N′-(2-fluoro-5-methylphenyl)-urea], the “AUC0-48 per mg of dose” value was “about 0.40±0.10 μg·h/mL/mg”, the “AUCoo per mg of dose” value is listed as “about 0.55±0.17 μg·h/mL/mg” and the “Cmax per mg of dose” value is recorded as “about 0.023±0.004 μg/mL/mg”. The Tmax (plasma) was roughly 2.8 h.

The record behind these values is patent publication US20100143459A1, “PHARMACEUTICAL DOSAGE FORM FOR ORAL ADMINISTRATION OF TYROSINE KINASE INHIBITOR” (ABBOTT GMBH & CO. KG, priority 2006, published 2010).
